Source: patent US7989466B2, “Methods to inhibit or augment an inflammatory response” (Cambridge Enterprise Limited, priority 1999, dated 2011)
Like-named read-outs stand apart in the source and are kept apart here. Positions of bridges follow the written chain, without caps; N, C: chain ends. Non-standard residues stand in square brackets, D forms with d. Residues, ends and D or L forms follow the SMILES beside them. No end group written: not given here.

Tests used:
HIV (IIIb), T-tropic = conditions: 100 μM peptide; for inhibition of reverse transcriptase activity: Jurkat cells, HIV IIIb; for effect on HIV infection / replication in Jurkat cells, in words: reverse transcriptase assay
[1] = test system: IL8 induced human monocyte migration; assay: Human monocyte migration, IL8; type: cell-based; conditions: n.s. = no statistically significant inhibition
Method: (§1) Agents may also be screened in a chemotactic assay which employs human neutrophils, eosinophils, mast cells, basophils, platelets, lymphocytes or monocytes. For monocytes, 9 mls of fresh blood are transferred to a tube containing 1 ml of 3.8% sodium citrate, and left at room temperature for 15 minutes. Five mls of this anti-coagulated blood are carefully layered over 3.5 ml Polymorphprep® (Nycomed Pharma, Oslo), and centrifuged at 500 g for 35 minutes per the manufacturer's instructions. The top band at the sample/medium interface contains monocytes. The monocytes are carefully removed with a glass pipette, and reconstituted to the original volume (5 ml). The cells are washed with PBS plus 10% fetal calf serum, and centrifuged at 400 g for 10 minutes. The washing step is repeated three times before the cells are counted. Cells are resuspended at 1×10^7 cells/ml in RPMI-1640+10% fetal calf serum (FCS). The monocytes are cultured for two days at 37° C. in a humidified atmosphere of 5% CO2.
(§2) On day 2, the cells are counted, spun down, and reconstituted to 1×10^7 cells/ml in Gey's balanced salt solution+1 mg/ml bovine serum albumin (BSA). […]

[2] = test system: SDF-1α induced human monocyte migration; assay: Human monocyte migration, SDF-1α; type: cell-based; conditions: n.s. = no statistically significant inhibition
Method: as §1, §2

[3] = test system: MIP1α induced human monocyte migration; assay: Human monocyte migration, MIP1α; type: cell-based; conditions: n.s. = no statistically significant inhibition
Method: as §1, §2

## SYRRITSSKCPKEAV [peptide 2(1-15)[MCP-1]]
HIV (IIIb), T-tropic
  inhibition of reverse transcriptase activity: 75±10%
  effect on HIV infection / replication in Jurkat cells, in words: more effective than peptide 3(1-12)[MCP-1] (SEQ ID NO:1), and as effective as SDF1α
HIV (IIIb), T-tropic; listed as Peptide 2
  inhibition of reverse transcriptase activity: 75%
HIV (IIIb), T-tropic; listed as peptide 2
  inhibition of reverse transcriptase activity: 75%
[1]
  % inhibition at 100 μM versus IL8, human monocyte migration: n.s.
[2]
  % inhibition at 100 μM versus SDF-1α, human monocyte migration: n.s.
[3]
  % inhibition at 100 μM versus MIP1α, human monocyte migration: n.s.

## EICADPKQKWVQ [peptide 3(1-12)[MCP-1]]
HIV (IIIb), T-tropic; listed as Peptide 3(1-12)[MCP-1]
  effect on HIV infection / replication in Jurkat cells, in words: effective inhibitor of Jurkat cell infection by HIV
HIV (IIIb), T-tropic; listed as peptide 3
  effect on HIV infection / replication in Jurkat cells, in words: but not peptide 3 (100 μM) markedly inhibited virus replication
[1]
  % inhibition at 100 μM versus IL8, human monocyte migration: 106%
[2]
  % inhibition at 100 μM versus SDF-1α, human monocyte migration: 108%
[3]
  % inhibition at 100 μM versus MIP1α, human monocyte migration: 120%

## C=CCCCCCCCCC(=O)N[C@H]1CCC(=O)NC1=O [A-I (NR58.4), [3S]-3-(undec-10-enoylamino)piperidine-2,6-dione]
LPS-induced serum TNF-α; mouse, in vivo, sc
  local tolerance at the site of injection: irritation was noted at the site of injection

## CC[C@@H](C)[C@H]1NC(=O)[C@@H](CCC(N)=O)NC(=O)[C@H](N)CSSC[C@H](C(N)=O)NC(=O)[C@@H](CC(C)C)NC(=O)[C@@H](CC(=O)O)NC(=O)[C@H]2CCCN2C(=O)[C@@H](CCCCN)NC(=O)[C@@H](CCC(N)=O)NC(=O)[C@@H](CCCCN)NC(=O)[C@@H](Cc2c[nH]c3ccccc23)NC1=O (H-[dC][dQ][dI][dW][dK][dQ][dK][dP][dD][dL][dC]-NH2; disulfide 1-11; N-terminus assumed)
LPS-induced serum TNF-α; i.v. loading dose and s.c. bolus 30 minutes before 583 μg LPS i.p.
  serum TNF-α in LPS treated mice, in words: dose dependent decrease
